The structures appear in SMILES notation. Counter-ions that a name gives are not always drawn.

A word on the melting point: it is the temperature of the solid-liquid transition.

In turn, `CC(=O)OC1CCN(c2cccc(C(OC3CCN(C)CC3)c3nc4ccccc4s3)c2)CC1` (stereo not drawn) (as salt: oxalate) [Example 413, acetic acid 1-{3-[benzothiazol-2-yl(1-methylpiperidin-4-yloxy)methyl]phenyl}piperidin-4-yl ester] returned a melting point of 74 °C. In the case of `CN1CCC(OC(c2ccc3occc3c2)c2nc3ccccc3s2)CC1` (stereo not drawn) (as salt: oxalate) [Example 46, 2-[benzofuran-5-yl(1-methylpiperidin-4-yloxy)methyl]benzothiazole], the melting point came out at 153 °C.

`CN1CCC(OC(c2cccc(OCCN3CCN(C(=O)OC(C)(C)C)CC3)c2)c2nc3ccccc3s2)CC1` (stereo not drawn) (as salt: oxalate) [Example 329, 4-(2-{3-[benzothiazol-2-yl(1-methylpiperidin-4-yloxy)methyl]phenoxy}ethyl)piperazine-1-carboxylic acid tert-butyl ester] registered a melting point of 90 °C. Compound `Cc1cc(F)c(C(OC2CCN(C)CC2)c2nc3ccccc3o2)c(F)c1` (stereo not drawn) (as salt: oxalate) [Example 536] registered a melting point of 114 °C. For `Cc1ccc(C(OC2CCN(C)CC2)c2nc3ccccc3s2)cc1` (stereo not drawn) (as salt: oxalate) [Example 7, 2-[(1-methylpiperidin-4-yloxy)-p-tolylmethyl]benzothiazole], the melting point worked out at 177 °C. `CCCCCCc1cccc(C(NC2CCN(C)CC2)c2nc3ccccc3[nH]2)c1` (stereo not drawn) (as salt: oxalate) [Example 76, [(1H-benzimidazol-2-yl)(3-hexylphenyl)methyl](1-methylpiperidin-4-yl)amine] yielded a melting point of 115 °C. As for `CN1CCC(OC(c2cccc(OCCCCCN)c2)c2nc3ccccc3s2)CC1` (stereo not drawn) (as salt: oxalate) [Example 371, 5-{3-[benzothiazol-2-yl(1-methylpiperidin-4-yloxy)methyl]phenoxy}pentylamine], the figure is 141 °C. In turn, `CCSc1cc(C(OC2CCN(C)CC2)c2nc3ccccc3[nH]2)ccc1C` (stereo not drawn) (as salt: oxalate) [Example 274, 2-[(3-ethylsulfanyl-4-methylphenyl)(1-methylpiperidin-4-yloxy)methyl]-1H-benzimidazole] returned a melting point of 142 °C. Consider `COC(=O)c1cccc(C(OC2CCN(C)CC2)c2nc3ccccc3s2)c1` (stereo not drawn) (as salt: oxalate) [Example 199, 3-[benzothiazol-2-yl(1-methylpiperidin-4-yloxy)methyl]benzoic acid methyl ester], for which the melting point stood at 93 °C. Under `CN1CCC(OC(c2nc3ccccc3[nH]2)c2cc(C#CCCCN)ccc2F)CC1` (stereo not drawn) (as salt: oxalate) [Example 442] stands 139 °C; under `CN1CCC(OC(c2cccc(SCCCN)c2)c2nc3ccccc3s2)CC1` (stereo not drawn) (as salt: oxalate) [Example 314, 3-{3-[benzothiazol-2-yl(1-methylpiperidin-4-yloxy)methyl]phenylsulfanyl}propylamine], 99 °C.

`CN1CCC(OC(c2cccc(C#CCCCCN)c2)c2nc3ccccc3s2)CC1` (stereo not drawn) (as salt: oxalate) [Example 319, 6-{3-[benzothiazol-2-yl(1-methylpiperidin-4-yloxy)methyl]phenyl}hex-5-ynylamine] returned a melting point of 135 °C. Regarding `CN1CCC(COC(c2cccc(C#CCCCN)c2)c2nc3cc(F)ccc3[nH]2)C1` (stereo not drawn) (as salt: oxalate) [Example 462], the melting point came to 200 °C. `CCCOc1cccc(C(OC2CCN(C)CC2)c2nc3ccccc3s2)c1` (stereo not drawn) (as salt: hydrochloride) [Example 26, 2-[(1-methylpiperidin-4-yloxy)(3-propoxy-phenyl)methyl]benzothiazole] displayed a melting point of 59 °C.

Take `Cc1ccc(F)c(C(OC2CCN(C)CC2)c2nc3ccccc3[nH]2)c1` (stereo not drawn) (as salt: oxalate) [Example 490]: the melting point worked out at 132 °C.

Values taken from patent US8802664B2 (Bioproject, priority 2010, dated 2014).
